Results: US9296741B2, “Bromodomain inhibitors” (priority 2012, dated 2016)

Experiments:
[1] = target: human BRD4 first bromodomain (BDI_K57-E168) (Homo sapiens (Human), UniProt O60885); test: TR-FRET bromodomain binding assay, BRD4 first bromodomain
[2] = target: human BRD4 second bromodomain (BDII_E352-M457) (Homo sapiens (Human), UniProt O60885); test: TR-FRET bromodomain binding assay, BRD4 second bromodomain
[3] = tested on: breast cancer cell line MX-1; test: MX-1 cell line proliferation assay; type: cell-based, human; conditions: Homo sapiens, MX1, 72 h; MX-1 cells, 3-day proliferation, Cell Titer Glo; read-out: Cellular proliferation: EC50
[4] = Human liver microsome stability assay; type: in vitro ADME; conditions: both sexes, human, microsomes, pH 7.4
[5] = Rat liver microsome stability assay; type: in vitro ADME; conditions: rat liver microsomes (male Sprague-Dawley), 0.5 μM test compound, pH 7.4, 37° C.; for half-life at 0.5 μM: 0.25 mg/mL microsomal protein, read-out: Stability in rat liver microsomes (t1/2 in minutes)
[6] = Mouse liver microsome stability assay; type: in vitro ADME; conditions: male, CD1, mouse, microsomes, pH 7.4

Row | SMILES | Ki [1] [nM] | Ki [2] [nM] | EC50 [3] [nM] | half-life at 0.5 μM [4] [min] | half-life at 0.5 μM [5] [min] | half-life at 0.5 μM [6] [min] | Stability in rat liver microsomes (t1/2 in minutes) ([5]; […] microsomal protein) [min]
1 | Cn1cc(-c2cc(S(C)(=O)=O)ccc2OC2CCCCC2)c2cc[nH]c2c1=O [Example 215, 4-[2-(cyclohexyloxy)-5-(methylsulfonyl)phenyl]-6-methyl-1,6-dihydro-7H-pyrrolo[2,3-c]pyridin-7-one] | 0.83 | 0.46 | 1.9 | 12 | 6 | 11 | 
2 | CCS(=O)(=O)Nc1ccc(Oc2ccccc2)c(-c2cn(C)c(=O)c3[nH]ccc23)c1 [Example 21, N-[3-(6-methyl-7-oxo-6,7-dihydro-1H-pyrrolo[2,3-c]pyridin-4-yl)-4-phenoxyphenyl]ethanesulfonamide] | 0.39 | 0.25 | 13.9 | > 120 | 3 | 22 | 
3 | Cn1cc(-c2cc(S(C)(=O)=O)ccc2Oc2ccc(F)cc2F)c2cc(COc3ccccc3)[nH]c2c1=O [Example 292, 4-[2-(2,4-difluorophenoxy)-5-(methylsulfonyl)phenyl]-6-methyl-2-(phenoxymethyl)-1,6-dihydro-7H-pyrrolo[2,3-c]pyridin-7-one] | 53.2 | 55.8 | 366 | 8 | 22 | 12 | 
4 | Cn1cc(-c2cc(S(N)(=O)=O)cnc2Nc2ccccc2)c2cc[nH]c2c1=O [Example 111, 5-(6-methyl-7-oxo-6,7-dihydro-1H-pyrrolo[2,3-c]pyridin-4-yl)-6-(phenylamino)pyridine-3-sulfonamide] | 8.7 | 10.3 | 199 | > 120 | 42 | 63 | 
5 | Cn1cc(-c2cc(C(=O)N3CCN(C(=O)c4ccco4)CC3)ccc2Oc2ccc(F)cc2F)c2cc[nH]c2c1=O [Example 134, 4-[2-(2,4-difluorophenoxy)-5-{[4-(furan-2-ylcarbonyl)piperazin-1-yl]carbonyl}phenyl]-6-methyl-1,6-dihydro-7H-pyrrolo[2,3-c]pyridin-7-one] | 43.5 | 7.3 | 137 | 15 | 21 | 2 | 
6 | CCOC(=O)c1cc2c(-c3cc(N)ccc3Oc3ccccc3)cn(C)c(=O)c2[nH]1 [Example 69, ethyl 4-(5-amino-2-phenoxyphenyl)-6-methyl-7-oxo-6,7-dihydro-1H-pyrrolo[2,3-c]pyridine-2-carboxylate] | 39 | 12.3 | 140 | 6 | 2 | 3 | 
7 | Cn1cc(-c2cc(S(=O)(=O)N3CCCC3)ccc2OCC2CC2)c2cc[nH]c2c1=O [Example 302, 4-[2-(cyclopropylmethoxy)-5-(pyrrolidin-1-ylsulfonyl)phenyl]-6-methyl-1,6-dihydro-7H-pyrrolo[2,3-c]pyridin-7-one] | 5.8 | 3.5 | 16.9 | 5 | 4 | 3 | 
8 | CCS(=O)(=O)Nc1ccc(OC2CCC(F)(F)CC2)c(-c2cn(C)c(=O)c3[nH]ccc23)c1 [Example 101, N-{4-[(4,4-difluorocyclohexyl)oxy]-3-(6-methyl-7-oxo-6,7-dihydro-1H-pyrrolo[2,3-c]pyridin-4-yl)phenyl}ethanesulfonamide] | 1.2 | 4.3 | 11.2 | 92 | 12 | 20 | 
9 | Cn1cc(-c2cc(S(=O)(=O)C(F)(F)F)ccc2OCC2CC2)c2cc[nH]c2c1=O [Example 243, 4-{2-(cyclopropylmethoxy)-5-[(trifluoromethyl)sulfonyl]phenyl}-6-methyl-1,6-dihydro-7H-pyrrolo[2,3-c]pyridin-7-one] | 11.5 | 38.2 | 249 | > 120 | 20 | 109 | 
10 | CCOC(=O)N1CCC(Oc2ccc(S(C)(=O)=O)cc2-c2cn(C)c(=O)c3[nH]ccc23)CC1 [Example 258, ethyl 4-[2-(6-methyl-7-oxo-6,7-dihydro-1H-pyrrolo[2,3-c]pyridin-4-yl)-4-(methylsulfonyl)phenoxy]piperidine-1-carboxylate] | 5.9 | 12.4 | 76.5 | 42 | 91 | 69.8 | 
11 | Cn1cc(-c2cc(-c3cccnc3)ccc2OCC2CC2)c2cc[nH]c2c1=O [Example 315, 4-[2-(cyclopropylmethoxy)-5-(pyridin-3-yl)phenyl]-6-methyl-1,6-dihydro-7H-pyrrolo[2,3-c]pyridin-7-one] | 37.6 | 231 | 160 | 34 | 4 | 11 | 
12 | Cn1cc(-c2cc(S(C)(=O)=O)ccc2Oc2ccccc2Cl)c2cc[nH]c2c1=O [Example 152, 4-[2-(2-chlorophenoxy)-5-(methylsulfonyl)phenyl]-6-methyl-1,6-dihydro-7H-pyrrolo[2,3-c]pyridin-7-one] | 24.6 | 4.8 | 105 | 51 | 10 | 22 | 
13 | CCNC(=O)c1cc2c(-c3cc(NS(C)(=O)=O)ccc3Oc3ccccc3)cn(C)c(=O)c2[nH]1 [Example 72, N-ethyl-6-methyl-4-{5-[(methylsulfonyl)amino]-2-phenoxyphenyl}-7-oxo-6,7-dihydro-1H-pyrrolo[2,3-c]pyridine-2-carboxamide] | 1.5 | 1.1 | 45.7 | 34 |  | 70 | 1
14 | Cn1cc(-c2cc(S(C)(=O)=O)ccc2Oc2ccc(C#N)cc2)c2cc[nH]c2c1=O [Example 156, 4-[2-(6-methyl-7-oxo-6,7-dihydro-1H-pyrrolo[2,3-c]pyridin-4-yl)-4-(methylsulfonyl)phenoxy]benzonitrile] | 11.3 | 20.9 | 114 | > 120 | > 120 | 33 | 
15 | CCCS(=O)(=O)Nc1ccc(Oc2ccc(C#N)cc2)c(-c2cn(C)c(=O)c3[nH]ccc23)c1 [Example 93, N-[4-(4-cyanophenoxy)-3-(6-methyl-7-oxo-6,7-dihydro-1H-pyrrolo[2,3-c]pyridin-4-yl)phenyl]propane-1-sulfonamide] | 7.6 | 32.2 | 120 | 54 | 102 | 25 | 
16 | Cn1cc(-c2cc(S(C)(=O)=O)ccc2OCC2CCCCC2)c2cc[nH]c2c1=O [Example 224, 4-[2-(cyclohexylmethoxy)-5-(methylsulfonyl)phenyl]-6-methyl-1,6-dihydro-7H-pyrrolo[2,3-c]pyridin-7-one] | 6.9 | 7 | 7.6 | 6 | 8 | 5 | 
